Assay results: paper PMC10424186 (Journal of Medicinal Chemistry, 2023)
Like-named read-outs stand apart in the source and are kept apart here.

What was measured:
[1] = tested on: U2OS bone osteosarcoma cells; assay: MTS cell viability assay, U2OS; assay type: cell-based; settings: for CC50: Homo sapiens
Source text: (§1) A biochemical readout of JMJD5 arginine residue hydroxylase activity in cells is not available; we thus focused our studies on biological readouts previously linked to JMJD5 function in order to investigate cellular responses resulting from JMJD5 inhibitor treatment. JMJD5 loss of function by RNA interference is reported to affect tumor cell proliferation and viability;[16],[18],[20],[21] we therefore studied the effects of 19i and 19j on the growth of three different tumor cell lines.
(§2) (a) U2OS bone osteosarcoma, (b) A549 lung adenocarcinoma, and (c) PC3 prostate adenocarcinoma cells were treated with the indicated doses of 19i and 19j (1.0, 5.0, 10, 50, and 100 μM) for 72 h and then tested for viability using the 3-(4,5-dimethylthiazol-2-yl)-5-(3-carboxymethoxyphenyl)-2-(4-sulfophenyl)-2H-tetrazolium (MTS) assay. A549 cells were treated with 19i or 19j (1.0 μM) for 24 h, then stained with (d) propidium iodide and analyzed by FACS or (e) DAPI staining for nuclei (left) and anti-53BP1 (for 53BP1 bodies, right). Cells were counted for 53BP1 bodies (f) and micronuclei (g). Data represent mean ± SEM from three (a–d) or four (f–g) independent replicates. For 53BP1 bodies, a minimum of 300 cells were counted per sample. For micronuclei, a minimum of 500 cells were counted per sample. Statistical analyses used one-way ANOVA with Tukey’s post hoc test [with p-value ≤ 0.01 (**)]. […]
Cell proliferation/viability was measured using MTS (CellTiter 96 Aqueous One 667 Solution Cell Proliferation Assay, Promega) and CyQUANT (Thermo Fisher) assays. […] Plates were incubated for 1 h at 37 °C under 5% CO2, protected from light, and then the absorbance was measured at 490 nm using an EnSpire Multimode plate reader (PerkinElmer). […] The cells were incubated for 1 h at 37 °C under 5% CO2, protected from light; fluorescence was then measured with excitation at ∼485 nm and emission detection at ∼530 nm using an EnSpire Multimode plate reader.

[2] = tested on: A549 lung adenocarcinoma cells; assay: MTS cell viability assay, A549; assay type: cell-based; settings: Homo sapiens, 72 h, read-out: half-maximum cytotoxicity concentration (CC50)
Source text: as §1
as §2, with “Data represent mean ± SEM from three (a–d) or four (f–g) independent replicates.” left out, “sample.” for “sample. Statistical analyses used one-way ANOVA with Tukey’s post hoc test [with p-value ≤ 0.01 (**)].”
(§3) Cell proliferation/viability was measured using MTS (CellTiter 96 Aqueous One 667 Solution Cell Proliferation Assay, Promega) and CyQUANT (Thermo Fisher) assays. […]

[3] = tested on: PC3 prostate adenocarcinoma cells; assay: MTS cell viability assay, PC3; assay type: cell-based; settings: 1.0–100 μM, 72 h
Source text: as §1
as §2, with “Data represent mean ± SEM from three (a–d) or four (f–g) independent replicates.” left out, “sample.” for “sample. Statistical analyses used one-way ANOVA with Tukey’s post hoc test [with p-value ≤ 0.01 (**)].”
as §3

[4] = tested on: U2OS bone osteosarcoma cells; assay: CyQuant viability assay (DNA content), U2OS; assay type: cell-based; settings: 1.0–100 μM, 72 h
Description: Cell proliferation/viability was measured using MTS (CellTiter 96 Aqueous One 667 Solution Cell Proliferation Assay, Promega) and CyQUANT (Thermo Fisher) assays. CellTiter 96 Aqueous MTS reagent (Promega) and phenazine methosulfate (Sigma-Aldrich) were dissolved in phosphate-buffered saline (PBS) according to the manufacturer’s protocol. The MTS working reagent was made according to the manufacturer’s protocol and added to each well containing the cells. Plates were incubated for 1 h at 37 °C under 5% CO2, protected from light, and then the absorbance was measured at 490 nm using an EnSpire Multimode plate reader (PerkinElmer). For the cyQUANT assay, the reagents were prepared according to the manufacturer’s protocol and added to the cells. The cells were incubated for 1 h at 37 °C under 5% CO2, protected from light; fluorescence was then measured with excitation at ∼485 nm and emission detection at ∼530 nm using an EnSpire Multimode plate reader.
viability of U2OS bone osteosarcoma cells.
derivatives 19i and 19j (1.0, 5.0, 10, 50, 100 μM) for 72 h and then tested for viability using the CyQuant assay,
which measures DNA content. Data represent mean ± SEM from independent experiments.
(1 picture or pasted object on this page, not shown here)

[5] = tested on: A549 cells; assay: Replication stress: 53BP1 bodies and micronuclei (immunofluorescence/DAPI); assay type: cell-based; settings: 1.0 μM, 24 h
Description: (§4) (a) U2OS bone osteosarcoma, (b) A549 lung adenocarcinoma, and (c) PC3 prostate adenocarcinoma cells were treated with the indicated doses of 19i and 19j (1.0, 5.0, 10, 50, and 100 μM) for 72 h and then tested for viability using the 3-(4,5-dimethylthiazol-2-yl)-5-(3-carboxymethoxyphenyl)-2-(4-sulfophenyl)-2H-tetrazolium (MTS) assay. A549 cells were treated with 19i or 19j (1.0 μM) for 24 h, then stained with (d) propidium iodide and analyzed by FACS or (e) DAPI staining for nuclei (left) and anti-53BP1 (for 53BP1 bodies, right). Cells were counted for 53BP1 bodies (f) and micronuclei (g). Data represent mean ± SEM from three (a–d) or four (f–g) independent replicates. For 53BP1 bodies, a minimum of 300 cells were counted per sample. For micronuclei, a minimum of 500 cells were counted per sample. Statistical analyses used one-way ANOVA with Tukey’s post hoc test [with p-value ≤ 0.01 (**)].
(§5) Because JMJD5 RNA interference has been associated with disturbances in the cell cycle,[1],[2],[81],[82] we measured phase distribution by flow cytometry in A549 cells (Figure 6d). Treatment with 19i or 19j for 24 h caused a reduction in G1-phase cells, with a corresponding increase in S- and G2/M-phase cells. […] We have recently reported that JMJD5 loss of function induces replication stress,[14] which is defined as a perturbation that slows or stalls DNA replication.[83] Unresolved replication stress can be measured by an increase in G1-phase 53BP1 “bodies” and micronuclei (Figure 6e), which are extranuclear DNA bodies that result from DNA cleavage and genome instability following replication stress.
Cells on coverslips were pre-extracted on ice for 5 min using a buffer containing 20 mM NaCl, 3 mM MgCl2, 300 mM sucrose, 10 mM PIPES, and 0.5%v/v Triton X-100 and fixed using 4%v/v paraformaldehyde (PFA) in PBS for 15 min at ambient temperature. Cells were then permeabilized in 0.1%v/v Triton X-100 in PBS at ambient temperature for 10 min and blocked in 1%w/v bovine serum albumin (BSA) in PBS for 1 h at ambient temperature. Coverslips were incubated with anti-53BP1 antibody (Bio-Techne, NB100-904V) diluted in 1%w/v BSA in PBS at ambient temperature for 1 h in the dark. Coverslips were then washed three times with cold 1%w/v BSA in PBS following incubation for 1 h with secondary antibodies (anti-mouse 555 nm A31570 or anti-rabbit 488 nm A11070, Thermo Fisher). The coverslips were washed three times with cold PBS and incubated for 10 min with 4′,6-diamidino-2-phenylindole (DAPI) (Invitrogen) to stain for nuclei. Prolong Gold Antifade Reagent (Cell Signaling Technology) was used to mount the coverslips onto microscope slides. Images were taken using 40× objective on a Leica DM6000 fluorescent microscope and processed with ImageJ.

[6] = tested on: A549 cells; assay: Cell-cycle analysis (propidium iodide, FACS); assay type: cell-based; settings: 1.0 μM, 24 h
Description: as §4, §5
Cell-cycle analyses were performed using A549 cells fixed in ice-cold 70%v/v ethanol. Cells were incubated with 100 μg/mL RNase A (Thermo Fisher Scientific), stained with 20 μg/mL propidium iodide, and then analyzed using Beckman Coulter CytoFLEX S. Representative FACS profiles were generated using Beckman CytExpert software.

[7] = target: T1, FIH (Homo sapiens, UniProt Q9NWT6); assay: SPE-MS FIH inhibition assay (HIF-1α CAD hydroxylation); assay type: biochemical; settings: Table 2; His6-FIH 0.15 μM, 5.0 μM HIF-1α CAD; n = 2, mean ± SD
T1 construct: made in house; host or cells: Escherichia coli
Description: HIF-α CAD, residues 788–822, for FIH;[70]
Cosubstrate/cofactor stock solutions [L-ascorbic acid/LAA: 50 mM in MQ-grade water; 2-oxoglutarate/2OG: 10 mM in MQ-grade water; ammonium iron(II) sulfate hexahydrate/FAS/(NH4)2Fe(SO4)2·6H2O: 400 mM in 20 mM HCl diluted to 1 mM in MQ-grade water] were freshly prepared from commercial solids (Sigma-Aldrich) on the day the assays were performed. […] FIH,[70] […] SPE-MS inhibition assays were performed as described in the cited literature, using isolated recombinant human enzymes (His6-thioredoxin-JMJD5,[42] His6-PHD2_181–426,[70] His6-FIH,[70] His6-KDM4E,[72],[73] His6-RIOX2_26–465,[87],[88] and His6-AspH315–758[48],[80]) and synthetic peptide substrates (RPS6_128–148 for JMJD5;[42] HIF-α CODD558–574 for PHD2;[70] HIF-α CAD788–822 for FIH;[70] H3_1–15K9me3 for KDM4E;[73] RPL27A31–49 for RIOX2;[44],[71] and hFX-CP101–119 for AspH;[45],[48] see above). For JMJD5, PHD2, FIH, RIOX2, and AspH, substrate hydroxylation was monitored (+16 Da mass shift), while for the KDM4E substrate, demethylation was monitored (−14 Da mass shift) by SPE-MS.

[8] = target: T2, RIOX2 (Homo sapiens, UniProt Q8IUF8); assay: SPE-MS RIOX2 inhibition assay (RPL27A31–49 hydroxylation); assay type: biochemical; settings: Table 2; His6-RIOX2 26–465 […], 5.0 μM RPL27A31–49; n = 2, mean ± SD
T2 construct: N-terminally His6-tagged RIOX2_26–465; made in house; host or cells: Escherichia coli
Description: Cosubstrate/cofactor stock solutions [L-ascorbic acid/LAA: 50 mM in MQ-grade water; 2-oxoglutarate/2OG: 10 mM in MQ-grade water; ammonium iron(II) sulfate hexahydrate/FAS/(NH4)2Fe(SO4)2·6H2O: 400 mM in 20 mM HCl diluted to 1 mM in MQ-grade water] were freshly prepared from commercial solids (Sigma-Aldrich) on the day the assays were performed. […] For JMJD5, PHD2, FIH, RIOX2, and AspH, substrate hydroxylation was monitored (+16 Da mass shift), while for the KDM4E substrate, demethylation was monitored (−14 Da mass shift) by SPE-MS.

[9] = target: T3, AspH (Homo sapiens, UniProt Q12797); assay: SPE-MS AspH inhibition assay (hFX-CP101–119 hydroxylation); assay type: biochemical; settings: Table 2; His6-AspH315–758 0.05 μM, 1.0 μM hFX-CP101–119; n = 2, mean ± SD
T3 construct: N-terminally His6-tagged AspH315–758; made in house; host or cells: Escherichia coli
T3 sequence (Q12797 315-758): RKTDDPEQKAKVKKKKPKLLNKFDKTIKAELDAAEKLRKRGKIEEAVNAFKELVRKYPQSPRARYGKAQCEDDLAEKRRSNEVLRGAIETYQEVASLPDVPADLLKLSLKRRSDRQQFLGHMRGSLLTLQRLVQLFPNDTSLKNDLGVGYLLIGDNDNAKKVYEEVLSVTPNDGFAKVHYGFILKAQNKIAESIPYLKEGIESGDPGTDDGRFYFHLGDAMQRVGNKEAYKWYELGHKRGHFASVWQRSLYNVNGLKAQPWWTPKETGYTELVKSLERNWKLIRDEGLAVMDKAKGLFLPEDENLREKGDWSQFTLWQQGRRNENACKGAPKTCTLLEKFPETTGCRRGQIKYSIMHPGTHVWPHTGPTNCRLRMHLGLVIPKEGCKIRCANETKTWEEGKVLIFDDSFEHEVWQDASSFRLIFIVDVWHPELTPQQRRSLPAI
Description: (§6) H3_1-15K9me3, histone 3 (H3), residues 1–15 with K9 of H3-bearing three methyl groups at the N^ε-position, K4 of H3 substituted by an alanine residue, and K14 of H3 by an isoleucine residue,[73] for KDM4E; and RPL27A, residues 31–49, for RIOX2 (Mina53).[44]
(§7) Cosubstrate/cofactor stock solutions [L-ascorbic acid/LAA: 50 mM in MQ-grade water; 2-oxoglutarate/2OG: 10 mM in MQ-grade water; ammonium iron(II) sulfate hexahydrate/FAS/(NH4)2Fe(SO4)2·6H2O: 400 mM in 20 mM HCl diluted to 1 mM in MQ-grade water] were freshly prepared from commercial solids (Sigma-Aldrich) on the day the assays were performed. The JMJD5,[42] PHD2,[70] FIH,[70] KDM4E,[72],[73] RIOX2,[44] and AspH[45] […] For JMJD5, PHD2, FIH, RIOX2, and AspH, substrate hydroxylation was monitored (+16 Da mass shift), while for the KDM4E substrate, demethylation was monitored (−14 Da mass shift) by SPE-MS.

[10] = target: T4, PHD2 (Homo sapiens, UniProt Q9GZT9); assay: SPE-MS PHD2 inhibition assay (HIF-1α CODD hydroxylation); assay type: biochemical; settings: Table 2; PHD2 181–426 […], 5.0 μM HIF-1α CODD; n = 2, mean ± SD
T4 construct: His6-PHD2_181–426; made in house; host or cells: Escherichia coli
Description: as §6, §7

[11] = target: T5, KDM4E (Homo sapiens, UniProt B2RXH2); assay: SPE-MS KDM4E inhibition assay (demethylation of H3 1–15 K9me3); assay type: biochemical; settings: Table 2, 10.0 μM H3 1–15 K9me3, n = 2, mean ± SD
T5 construct: made in house; host or cells: Escherichia coli
T5 sequence (B2RXH2 1-506): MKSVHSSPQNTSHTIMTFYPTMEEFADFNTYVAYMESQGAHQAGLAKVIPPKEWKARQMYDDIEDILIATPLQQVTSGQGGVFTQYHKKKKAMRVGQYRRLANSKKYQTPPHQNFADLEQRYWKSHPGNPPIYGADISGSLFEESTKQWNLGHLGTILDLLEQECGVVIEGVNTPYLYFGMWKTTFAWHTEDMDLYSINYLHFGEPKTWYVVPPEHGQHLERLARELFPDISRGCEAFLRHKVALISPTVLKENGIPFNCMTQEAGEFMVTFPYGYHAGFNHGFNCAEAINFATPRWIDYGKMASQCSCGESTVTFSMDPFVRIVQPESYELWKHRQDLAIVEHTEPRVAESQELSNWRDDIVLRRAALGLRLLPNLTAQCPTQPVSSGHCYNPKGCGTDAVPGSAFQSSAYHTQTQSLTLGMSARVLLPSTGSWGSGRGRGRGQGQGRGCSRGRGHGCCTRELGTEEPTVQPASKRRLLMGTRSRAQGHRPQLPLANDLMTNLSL
Description: as §6, §7

T1 sequence (Q9NWT6 whole entry): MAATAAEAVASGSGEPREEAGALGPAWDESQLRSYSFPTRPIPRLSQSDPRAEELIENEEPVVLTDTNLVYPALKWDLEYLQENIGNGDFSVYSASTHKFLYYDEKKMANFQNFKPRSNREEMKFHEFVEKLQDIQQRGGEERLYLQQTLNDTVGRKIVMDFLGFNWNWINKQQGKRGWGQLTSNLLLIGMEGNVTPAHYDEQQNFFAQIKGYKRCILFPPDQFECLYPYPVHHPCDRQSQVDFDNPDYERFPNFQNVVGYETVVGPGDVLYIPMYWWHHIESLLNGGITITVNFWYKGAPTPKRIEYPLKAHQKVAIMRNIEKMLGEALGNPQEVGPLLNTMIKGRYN
T4 sequence (Q9GZT9 181-426): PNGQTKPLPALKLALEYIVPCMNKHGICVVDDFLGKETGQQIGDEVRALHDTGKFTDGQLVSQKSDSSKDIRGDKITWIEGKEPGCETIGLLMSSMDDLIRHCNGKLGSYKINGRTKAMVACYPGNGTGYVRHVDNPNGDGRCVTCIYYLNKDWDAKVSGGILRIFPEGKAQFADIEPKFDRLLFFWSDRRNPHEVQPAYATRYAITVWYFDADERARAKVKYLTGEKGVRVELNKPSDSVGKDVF
T2 sequence (Q8IUF8 26-465): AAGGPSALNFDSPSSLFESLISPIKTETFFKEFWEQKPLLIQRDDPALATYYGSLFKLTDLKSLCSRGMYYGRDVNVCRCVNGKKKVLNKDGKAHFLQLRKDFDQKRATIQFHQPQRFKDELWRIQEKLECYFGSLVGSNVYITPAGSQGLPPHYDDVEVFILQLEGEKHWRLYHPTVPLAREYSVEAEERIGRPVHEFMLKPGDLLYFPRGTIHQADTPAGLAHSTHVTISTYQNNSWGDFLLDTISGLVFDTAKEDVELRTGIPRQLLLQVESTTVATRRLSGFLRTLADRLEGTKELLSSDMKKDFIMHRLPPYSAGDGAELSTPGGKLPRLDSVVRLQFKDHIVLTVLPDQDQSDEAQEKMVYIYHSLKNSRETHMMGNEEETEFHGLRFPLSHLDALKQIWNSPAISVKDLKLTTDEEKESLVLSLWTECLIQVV

| SMILES | effect on cell growth (in words) ([1]; 1.0–100 μM, 72 h, MTS) | CC50 ([1]; supplementary CSV, read-out: CC50 U2OS cells) | CC50 [2] | effect on cell growth (in words) [3] | viability (CyQuant, in words) [4] | 53BP1 bodies [5] | micronuclei [5] | G1-phase cells [6] | S- and G2/M-phase cells [6] | Sub-G1-phase cell numbers [6] | CC50 ([1]; 72 h, MTS, read-out: half-maximum cytotoxicity concentration (CC50)) | IC50 [7] | IC50 [8] | IC50 [9] | IC50 [10] | IC50 [11] |
| --- | --- | --- | --- | --- | --- | --- | --- | --- | --- | --- | --- | --- | --- | --- | --- | --- |
| COC(=O)c1cc(C(=O)OC)c(NCc2ccccc2OC)cn1 [Compound 19i] | did not significantly affect | > 100 µM | 10.7 µM | did not significantly affect | reduced viability | significantly induced | significantly induced | reduction | increase | increased |  |  |  |  |  |  |
| COC(=O)c1cc(C(=O)OC)c(NCc2ccccc2C2CC2)cn1 [Compound 19j] |  |  | 2.1 µM |  | reduced viability | significantly induced | significantly induced | reduction | increase | increased | 10 µM |  |  |  |  |  |
| O=C(O)c1cc(C(=O)O)c(NCc2ccccc2C2CC2)cn1 [Compound 20j, 5-((2-cyclopropylbenzyl)amino)pyridine-2,4-dicarboxylic acid] |  |  |  |  |  |  |  |  |  |  |  | > 50 µM | > 50 µM | 8.9 ± 5 µM | > 50 µM | > 50 µM |
